Values joined by “and” are separate entries in the source; they are usually repeats but may differ in a detail not shown here. Identical values can stand only once. Results filed as inconclusive are left out. Active and inactive are the calls of the source.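 How the source made its calls: active means falling signal with fitted half-maximal potency no higher than twice the top valid tested dose; inconclusive means poor fit quality, or flat fit spanning -70% to -30%; inactive means potency over limit, rising signal, or flat fit inside 30%.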
System: Cryptococcus neoformans growth, Alamar Blue, 24 h
Experiment: fungal growth arrest, C. neoformans – Alamar Blue, cherry-picks, dose response (AID 686998)

Compound | IC50
CC(=O)N1[C@H](CO)[C@H](c2ccc(-c3ccccc3)cc2)[C@@H]1CNC(=O)C1CC1 | 4.92 µM
CC(NC(=O)COc1ccccc1C(C)(C)C)c1ccccc1 (centres undefined) | 3.83 µM
CC(NC(=O)COc1ccccc1-c1ccccc1)c1ccccc1 (centres undefined) | 2.53 µM
O=C(C[C@@H]1C=C[C@@H](NC(=O)Nc2cc(F)ccc2F)[C@H](CO)O1)NCCCN1CCOCC1 | 68.3 µM
C[C@@H]1CN([C@H](C)CO)C(=O)c2cc(NS(=O)(=O)c3cn(C)cn3)ccc2O[C@@H](C)CCCCO[C@H]1CN(C)C | 62.9 µM
O=C1CCC(C(=O)Nc2ccc([N+](=O)[O-])cc2)N1 (centres undefined) | 10.1 µM
CC(C)CC#Cc1cnc2c(c1)C(=O)N([C@@H](C)CO)C[C@H](C)[C@H](CN(C)C(=O)c1ccc3c(c1)OCO3)O2 | 5.12 µM
COc1cccc(NC(=O)CN2CCN(S(=O)(=O)c3ccc(C(C)C)cc3)CC2)c1 | > 70 µM (inactive)
Cc1ccc(S(=O)(=O)N2CC[C@@H]3[C@H]2c2cc(-c4ccccc4F)ccc2N[C@@H]3CO)cc1 | 6.14 µM
COc1ccc(C(=O)NC(=S)Nc2ccccc2N2CCOCC2)cc1[N+](=O)[O-] | 26.1 µM
CNC[C@@H]1Oc2c(NS(=O)(=O)c3ccc(Cl)cc3)cccc2C(=O)N([C@H](C)CO)C[C@H]1C | > 70 µM (inactive)
NC(=S)N/N=C/c1ccc(-c2cc(Cl)ccc2Cl)o1 | 4.48 µM
COC(=O)C1=C(C)N(Cc2ccc(F)cc2)C(=S)NC1c1cccc(Cl)c1 (centres undefined) | 10.6 µM
Cc1ccc(S(=O)(=O)N2CC[C@@H]3[C@H](CO)Nc4ccc(-c5ccccc5F)cc4[C@@H]32)cc1 | 0.997 µM
CCc1ccc(C(C)NC(=S)NCc2ccc(F)cc2)cc1 (centres undefined) | 7.31 µM
CNC[C@H]1Oc2cc(Br)ccc2S(=O)(=O)N([C@H](C)CO)C[C@H]1C | > 70 µM (inactive)
Cc1ccc(C2CC(c3cccs3)=NN2C(=O)c2ccc(Br)o2)cc1 (centres undefined) | 0.375 µM
O=C(COc1ccccc1)NCc1ccccc1 | 2.84 µM
CCOC(=O)NC(=S)Nc1ccc(C(C)(C)C)cc1 | 7.22 µM
C/C=C/c1ccc([C@@H]2[C@@H](C#N)N(S(=O)(=O)c3cccc(F)c3)[C@@H]2CO)cc1 | 33.6 µM
COC(=O)C1=C(C)N(Cc2ccc(Cl)cc2)C(=S)NC1c1ccc(Br)cc1 (centres undefined) | 14.7 µM
Cc1noc(C)c1NC(=O)N(C)C[C@@H]1Oc2ccc(NC(=O)NC(C)C)cc2CC(=O)N([C@@H](C)CO)C[C@@H]1C | > 70 µM (inactive)
S=C(NCCc1cccc(Cl)c1)NC1CCCCC1 | 6.69 µM
S=C(NCc1ccccc1)NCC1COc2ccccc2O1 (centres undefined) | 21 µM

Compound | IC50
CO[C@@H]1CN(C)C(=O)c2ccc(NS(=O)(=O)c3ccc(Oc4ccccc4)cc3)cc2OC[C@H](C)NC[C@H]1C | 3.78 µM
COC(=O)C1=C(C)N(Cc2ccc(F)cc2)C(=S)NC1c1cccc(OC)c1 (centres undefined) | 31 µM
O=C(NC(=S)NCC1COc2ccccc2O1)c1ccc(Cl)cc1 (centres undefined) | 6.31 µM
COc1cccc(NC(=S)N2CCC(Cc3ccccc3)CC2)c1 | 8.22 µM
O=C(NC(=S)Nc1cc(Cl)ccc1N1CCOCC1)c1ccccc1[N+](=O)[O-] | 7.86 µM
COc1ccc(N2CCN(C(=O)CSc3ncnc4c3cnn4-c3ccccc3C)CC2)cc1 | 53.8 µM
Cc1cc(C)c2nc(N3CCN(C(=O)c4cccs4)CC3)sc2c1 | 21.9 µM
Cc1ccccc1NC(=S)NC(=O)CCc1ccccc1 | 5.62 µM
CC=Cc1ccc2n(c1=O)C[C@@H]1[C@@H](CO)[C@H](C(=O)NCc3ccc4c(c3)OCO4)[C@H]2N1C(=O)C1CC1 (mixture of isomers) | 23.3 µM
COc1ccccc1NC(=O)c1cn(C)c(=O)c2cc(OC)c(OC)cc12 | 50.1 µM
Cc1cc(C)c(NC(=O)CN(C2CCCCC2)C2CCCCC2)c(C)c1 | 32.9 µM
Cc1ccc(C(=O)Nc2ccc3ncccc3c2)cc1 | 24 µM
O=C(c1cccs1)N1CCN(c2nc3ccccc3s2)CC1 | > 70 µM (inactive)
CN1c2ccc(-c3ccc(F)cc3)cc2[C@@H]2[C@@H](CCN2C(=O)C2CCOCC2)[C@@H]1CO | 0.756 µM
CC(C)NC(=O)Nc1ccc2c(c1)C(=O)N([C@@H](C)CO)C[C@@H](C)[C@@H](CN(C)C(=O)NC1CCCCC1)OCCCC[C@H](C)O2 | < 0.26 µM
COC(=O)C1=C(C)N(Cc2ccc(Cl)cc2)C(=S)NC1c1ccccc1 (centres undefined) | 10.8 µM
COC(=O)C1=C(C)N(Cc2ccc(Br)cc2)C(=S)NC1c1ccc(F)cc1 (centres undefined) | 5.35 µM
Cc1ccccc1NC(=O)C(NC1CCCCC1)C(C)C (centres undefined) | 1.46 µM
CCNC(=O)C[C@H]1CC[C@@H](NC(=O)NC2CCCCC2)[C@H](CO)O1 | 53.1 µM
CO[C@H]1CN(C)C(=O)c2ccc(NC(=O)NC(C)C)cc2OC[C@@H](C)NC[C@H]1C | 1.08 µM
O=C(NC(=S)Nc1ccccc1N1CCCC1)c1ccccc1[N+](=O)[O-] | 1.42 µM
O=C(C[C@H]1CC[C@H]2[C@@H](COC[C@H](O)CN2Cc2cc(F)cc(F)c2)O1)Nc1nccs1 | > 70 µM (inactive)
CCCNC(=O)[C@H]1[C@H](CO)[C@H]2Cn3c(cccc3=O)[C@@H]1N2C(=O)Nc1cc(F)ccc1F | 68.5 µM
CN1C[C@@H]2C(c3ccc(C(F)(F)F)cc3)C3(c4ccccc4)CC2(C3)[C@H]1c1ccccc1 (some centres undefined) | 11.2 µM

Compound | IC50
COC(=O)C1=C(C)N(Cc2ccc(F)cc2)C(=S)NC1c1ccccc1 (centres undefined) | 29.4 µM
C[C@H](CO)N1C[C@H](C)[C@H](CN(C)C(=O)NC2CCCCC2)OCCCC[C@H](C)Oc2ccc(NS(=O)(=O)c3cn(C)cn3)cc2C1=O | 47.7 µM
COC(=O)C1=C(C)N(Cc2ccccc2)C(=S)NC1c1cccc(Br)c1 (centres undefined) | 6.55 µM and 8.35 µM
COc1ccc(CN(C)C[C@@H]2OCCCC[C@@H](C)Oc3ccc(NC(=O)c4ccccc4)cc3C(=O)N([C@H](C)CO)C[C@@H]2C)cc1 | > 70 µM (inactive)
Cc1ccc2nc(C)c3c(c2c1)OC(C(C)(Cl)Br)C3 (centres undefined) | 19 µM
O=C(NC(=S)Nc1ccccc1N1CCOCC1)c1ccc(Br)cc1 | 6.23 µM
C[C@@H]1CN([C@H](C)CO)C(=O)CCCn2nncc2CO[C@H]1CN(C)Cc1cccc(C(F)(F)F)c1 | 4.17 µM
Cc1ccc(NC(=S)Nc2ccc(Cl)c(Cl)c2)c(OC(F)F)c1 | 20.6 µM
Cc1ccc(OCCn2c(=S)[nH]c3ccccc32)c(C(C)C)c1 | 0.913 µM
CCC(=O)N1[C@H](CO)[C@@H](c2ccc(-c3cccnc3)cc2)[C@@H]1CN(C)C(C)=O | 33.6 µM
C[C@@H]1CN([C@H](C)CO)C(=O)Cc2cc(NC(=O)CCCCCC(=O)Nc3ccccc3N)ccc2O[C@H]1CN(C)C(=O)Nc1ccccc1 | 4.69 µM
Cc1ccc(/C=C2\SC(=S)N(NS(=O)(=O)c3ccc(C)cc3)C2=O)cc1 | 12.7 µM
CNC[C@H]1Oc2ncc(C#CCC(C)C)cc2C(=O)N([C@H](C)CO)C[C@H]1C | > 70 µM (inactive)
C[C@H](CO)N1C[C@H](C)[C@H](CN(C)Cc2ccc(Cl)c(Cl)c2)Oc2c(NC(=O)Nc3ccccc3)cccc2C1=O | 10.8 µM
Fc1cccc(CCN2C(=S)NC[C@@H]2Cc2ccccc2)c1 | 7.13 µM
CC(NC(=O)COc1ccccc1Cl)c1ccccc1 (centres undefined) | 0.88 µM
CCOC(=O)CNC(=O)CSc1ncnc2c1cnn2-c1ccc(Cl)cc1 | 67.1 µM
CC(C)CC#Cc1cnc2c(c1)C(=O)N([C@@H](C)CO)C[C@@H](C)[C@@H](CN(C)C(=O)c1cccc(F)c1)O2 | 45.8 µM
CCc1ccc(C(=O)NC(=S)Nc2ccccc2N2CCOCC2)cc1 | 9.06 µM
COc1ccccc1/C=N/NC(=S)NCc1ccco1 | 12.8 µM
CN1c2ccc(-c3ccc(F)cc3)cc2[C@H]2[C@H](CCN2S(=O)(=O)c2cccc(F)c2)[C@H]1CO | 6.07 µM
COC(=O)C1=C(C)N(Cc2ccccc2)C(=S)NC1c1ccc(Br)cc1 (centres undefined) | 10.2 µM
Cc1ccccc1-n1ncc2c(SCC(=O)N3c4ccccc4CC3C)ncnc21 (centres undefined) | 0.28 µM
CC12CC3CC(C)(C1)CC(C(=O)NC(=S)N1CCCCC1)(C3)C2 | 15.5 µM

Compound | IC50
CC(=O)OC1(C)CC(C)C(=O)C(C(O)CC2CC(=O)NC(=O)C2)C1 (centres undefined) | < 0.26 µM
C[C@@H]1CCCCO[C@@H](CN(C)C(=O)NC2CCCCC2)[C@H](C)CN([C@@H](C)CO)C(=O)c2cc(NS(=O)(=O)c3cn(C)cn3)ccc2O1 | 44.3 µM
CNC(=O)CN(c1ccc(OC)cc1)S(=O)(=O)c1ccc(F)cc1 | > 70 µM (inactive)
C[C@H]1CN([C@@H](C)CO)C(=O)CCCn2cc(nn2)CO[C@@H]1CN(C)Cc1ccc(C(F)(F)F)cc1 | 30.7 µM
C[C@@H]1CN([C@H](C)CO)C(=O)c2cccc(NC(=O)c3ccncc3)c2O[C@H]1CN(C)C(=O)Nc1ccc(C(F)(F)F)cc1 | 67.4 µM
COc1ccc(NC(=O)c2cn(C)c(=O)c3cc(OC)c(OC)cc23)c(OC)c1 | > 70 µM (inactive)
C[C@H](CO)N1C[C@H](C)[C@@H](CN(C)Cc2ccc(Oc3ccccc3)cc2)Oc2ccc(NC(=O)Nc3ccc4c(c3)OCO4)cc2C1=O | > 70 µM (inactive)
CCCn1c(=S)[nH]c2cc(Cl)ccc21 | 22.9 µM
COC(=O)C1=C(C)N(Cc2ccc(Br)cc2)C(=S)NC1c1ccc(OC)cc1 (centres undefined) | 26 µM and 32.8 µM
Cc1ccc(NC(=S)NCc2ccc(Cl)cc2)c(OC(F)F)c1 | 10.2 µM
N#C[C@H]1[C@@H](c2ccc(C#CCC3CCCC3)cc2)[C@@H](CO)N1C(=O)c1ccccn1 | 25.9 µM
COc1ccc(CNC(=S)NCc2ccc(OC(C)C)cc2)cc1 | 30.4 µM
CC(=O)N[C@H]1CC[C@@H](CCNC(=O)C2CCC2)O[C@H]1CO | 50.2 µM
Cc1ccccc1S(=O)(=O)N[C@@H]1CC[C@H](CCNS(=O)(=O)c2cccc(F)c2)O[C@H]1CO | > 70 µM (inactive)
COc1cc(NC(=O)CN2CCN(S(=O)(=O)c3ccc(C(C)C)cc3)CC2)cc(OC)c1 | 59.4 µM
COc1cccc(CNC(=O)COc2ccc(C(=O)c3ccccc3)cc2)c1 | 21 µM
C[C@H](CO)N1C[C@H](C)[C@@H](CN(C)S(=O)(=O)c2cn(C)cn2)Oc2c(NC(=O)Nc3ccccc3)cccc2C1=O | > 70 µM (inactive)
C[C@@H]1CN([C@H](C)CO)C(=O)c2ccccc2-c2ccccc2CO[C@H]1CN(C)S(=O)(=O)c1cccc(C#N)c1 | 66.7 µM
C[C@@H]1CN([C@H](C)CO)S(=O)(=O)c2ccc(-c3ccccc3)cc2O[C@H]1CN(C)C(=O)C1CCCCC1 | 65.5 µM
Cc1ccccc1-n1ncc2c(SCC(=O)NCc3cccs3)ncnc21 | 23.4 µM
C[C@H](CO)N1C[C@H](C)[C@H](CN(C)S(=O)(=O)c2cn(C)cn2)Oc2ncc(/C=C/c3ccccc3)cc2C1=O | 60.1 µM
C[C@@H]1CN([C@@H](C)CO)S(=O)(=O)c2ccc(C3=CCCC3)cc2O[C@@H]1CN(C)Cc1ccccc1F | 31.3 µM

Reference: PubChem BioAssay AID686998 (Broad Institute, 2013)
